Here are results for 2 compounds from PMC8840040, “Pharmacokinetic Characterization of the DDAH1 Inhibitors ZST316 and ZST152 in Mice Using a HPLC-MS/MS Method” (Molecules, 2022).

One series relates to human recombinant DDAH1. More on the design: method as in PMID 26420019. The conditions noted are these: cited from earlier work; for IC50 / Ki: human recombinant DDAH1 expressed in HEK293T cells; for IC50: read-out: IC50 towards DDAH1; for Ki: read-out: Ki towards DDAH1.
A short description of series [1]: Urinary metabolites in 24 h urine by HPLC-MS/MS. Type of series: in vivo, FVB mice. How it is done: The assessment of the urinary elimination after oral and intravenous administration, in the urine fraction collected 24 h post dose, is reported in Table 6. […] To further investigate this issue, we searched for the presence of urinary metabolites in the 24 h urine samples in one mouse per treatment group. We identified at least eight molecules most likely originating from the parent compounds (Table 7; see Supplementary Figure S1 for the hypothesized structures).
Mice were treated with ZST316 and ZST152 using a dose of 60 mg/Kg (oral gavage) and 30 mg/Kg (intravenous bolus). For pharmacokinetic sampling, blood was collected at 15 and 30 min, and 1, 3, 8, and 24 h post dose. Three mice were analyzed per each time point. After the animals were anesthetized with isoflurane, the blood was drained from the retro-orbital plexus into heparinized tubes, and then centrifuged for 10 min at 4000× g at 4 °C to separate plasma. A 24-h urine fraction was collected in three mice for each drug and route of administration. Plasma and urine samples were stored at −20 °C until analysis by HPLC-MS/MS.
[…] chromatography was performed using a series 200 HPLC system (Perkin Elmer, Waltham, MA, USA) under gradient conditions with separation on a HILIC column, 3 µm, 100 A, 2.1 × 150 mm (Waters, Milford, MA, USA), coupled with a 3 µm, 3.9 × 5.0 mm guard column of the same material at the flow rate of 0.2 mL/min. Gradient features: 10% mobile phase (MP) A (NH4HCO2 10 mM, 10% CH3CN, 0.1% HCOOH) and 90% MP B (CH3CN, 0.1% HCOOH) as the initial constant condition; then to 90% MP A in 6 min and the constant condition for 1.5 min. Return to the start condition in 0.5 min and conditioning for 5.5 min. Total run time: 13.5 min. Mass spectrometric detection was performed using an API 4000 triple quadrupole mass spectrometer (SCIEX, Framingham, MA, USA) supplied with a Turbo Ion Spray source set at 350 °C and −4200 V, analyzing biological samples with electrospray ionization (ESI) operating in negative ion mode. Purified air was used as nebulizer gas (Gas 1) and heater gas (Gas 2) and N2 was used as curtain gas and collision activated dissociation gas. They were set to 40, 50, 20, and 4 instrument units (psi), respectively. The declustering potential (DP) was set at −119 V and the collision exit potential (CXP) at –10 V. All parameters of the source were defined by direct infusion of ZST316 and ZST152 1 µg/mL in mobile phase B. The final quantification was carried out in Selected Reaction Monitoring (SRM) with the following transitions: m/z 307.9 → 208.0 (collision energy of −29.5 eV) for ZST316 and m/z 271.9 → 170.9 (collision energy −24.7 eV) for ZST152 (Figure 2 and Figure 3). Data were processed with the software package Analyst 1.6.2 (AB SCIEX).

Series [2] is described as follows: Stability in mouse plasma and urine. Type of series: in vitro ADME. Conditions: for stability in urine stored frozen: mice urine, −20 °C. How it is done:
The extraction recovery, established on QCs at the concentrations of LLOQ (i.e., 5 ng/mL), at 15 and 250 ng/mL, fell in the range 88.9%–94.6% and 87.9%–117.5% for ZST316 and ZST152, respectively. The LLOQ in plasma was 5.0 ng/mL for both compounds, with precision of 7.1% and 4.1% and accuracy of 95.8% and 106.1% (n = 6) for ZST316 and ZST152, respectively (Table 1). We decided to validate this value as LLOQ even though the limit of detection (LOD) reached in the initial set up phase of the methods was established for both compounds at 1 ng/mL (S/N > 4.0). However, such sensitivity was not required as the expected range of activity (IC50) was markedly higher than the LLOQ value for both compounds. The linearity of the method, evaluated over three different analytical runs in the concentration range 5.0–500.0 ng/mL, was acceptable for both analytes, with an average coefficient of determination (R^2) of 0.990 and 0.992 for ZST316 and ZST152, respectively. […] Both ZST316 and ZST152 were stable in frozen plasma for at least one month at −20 °C. No chromatographic carry-over effect was observed injecting a blank sample after the highest standard calibration point. The method was considered suitable for preclinical pharmacokinetic investigations.
Both ZST316 and ZST152 were stable at 37 °C in mice urine for at least 24 h and stored frozen at −20°C for one month. No chromatographic carry-over effect was observed injecting a blank sample after the highest standard calibration point.

The test system of a further series is cancer cells. The conditions noted are these: cited from earlier work; for degradation in the culture media: culture media of cancer cell experiments.
Series [3] deals with triple-negative breast cancer cells. Conditions: cited from earlier work; for suppression of vasculogenic mimicry: in vitro, triple-negative breast cancer cells.
[4] abbreviates: after intravenous ZST152, total dose 1.410 mg, mouse #1, 24 h urine.
[5] abbreviates: after oral ZST152, total dose 1.158 mg, mouse #3, 24 h urine.
Where [6] appears, read: after intravenous ZST316, total dose 1.326 mg, mouse #1, 24 h urine.
[7] abbreviates: after oral ZST316, total dose 1.308 mg, mouse #3, 24 h urine.

For orientation: IC50 means the midpoint of a concentration-inhibition curve. For orientation: Ki means the equilibrium dissociation constant of an inhibitor or competing ligand from its target. As for `COCCNC(=N)NCCC[C@H](N)c1noc(=O)[nH]1` [ZST152], in the series with human recombinant DDAH1, the IC50 was 18 µM and the Ki was 7 µM. Further, in series [1] (setting [4]), the “% of Dose recovered in urine” value is recorded as 10.5% and the “Amount Recovered in urine” value was found to be 148 µg. In addition, in series [1] (setting [5]), the “% of Dose recovered in urine” value came out at 6.5% and the “Amount Recovered in urine” value stood at 75.0 µg. Also, in series [2], the “stability in mice urine at 37 °C” value is given as “at least 24 h” and the “stability in urine stored frozen” value is on record as “one”. Moreover, in the series with cancer cells, the “penetration of the cell membrane of cancer cells and intracellular DDAH1 inhibition” value is “able to successfully penetrate the cell membrane of cancer cells and inhibit DDAH1 intracellularly”; the “degradation in the culture media” value is on record as “did not significantly degrade”. Further, the “suppression of vasculogenic mimicry” value in series [3] is “suppress vasculogenic mimicry”.
On to `COCCNC(=N)NCCC[C@H](N)C(=O)NS(C)(=O)=O` [ZST316], for which, in the series on human recombinant DDAH1, the IC50 is 3 µM and the inhibition constant Ki was 1 µM. Besides, the “greater inhibitory activity towards DDAH1 compared to reference inhibitor L-257” value in the series on human recombinant DDAH1 (vs L-257) is recorded as 13 fold. Further, in series [1] (setting [6]), the “% of Dose recovered in urine” value is recorded as 3.1% and the “Amount Recovered in urine” value is reported as 41.2 µg. In series [1] (setting [7]), the “% of Dose recovered in urine” value was found to be 2.2% and the “Amount Recovered in urine” value is recorded as 28.9 µg. In series [2], the “stability in mice urine at 37 °C” value is on record as “at least 24 h” and the “stability in urine stored frozen” value is “one”. In addition, in the series on cancer cells, the “penetration of the cell membrane of cancer cells and intracellular DDAH1 inhibition” value is “able to successfully penetrate the cell membrane of cancer cells and inhibit DDAH1 intracellularly”; the “degradation in the culture media” value is on record as “did not significantly degrade”. The “suppression of in vitro vasculogenic mimicry and migration” value in series [3] (MDA-MD-231 cells, ref recent demonstration by our group) is “suppresses in vitro vasculogenic mimicry and migration”. Also, in series [3], the “suppression of vasculogenic mimicry” value is listed as “suppress vasculogenic mimicry”.
